Source: patent US20180237362A1, “NOVEL POLYGODIAL ANALOGS FOR THE TREATMENT OF CANCER AND OTHER PROLIFERATIVE DISEASES” (THE BOARD OF REGENTS OF THE UNIVERSITY OF TAXAS SYSTEM, priority 2015, published 2018)
Where two headings read alike, the source gives them in different places.

Key:
[1] = tested on: human A549 non-small cell lung cancer (NSCLC); assay: MTT antiproliferative assay, A549; type: cell-based; details: for GI50: 72 h treatment, MTT assay, sextuplicates, read-out: GI50 in vitro values, A549
Description: (§1) Human mammary carcinoma MCF-7 (ATCC HTB22) cells were cultured in RPMI supplemented with 10% FBS. The U87 cells (ATCC HTB-14) were cultured in DMEM culture medium, while the A549 cells (DSMZ ACC107) were cultured in RPMI culture medium supplemented with 10% heat-inactivated FBS. The GBM Hs683 (ATCC HTB-138) cells were cultivated in DMEM supplemented with 10% FBS. The human uterine sarcoma MES-SA (ATCC CRL1966) and MES-SA/D×5 cells were cultured in RPMI-1640 medium supplemented with 10% FBS with MES SA/D×5 maintained in the presence of 500 nM Doxorubicin (Sigma). SKMEL-28 cells (ATCC HTB72) and U373 GBM cells (ECACC 08061901) were cultured in RPMI culture medium supplemented with 10% heat-inactivated FBS. Cell culture media were supplemented with 4 mM glutamine (Lonza code BE17-605E), 100 μg/mL gentamicin (Lonza code 17-5182), and penicillin-streptomycin (200 units/ml and 200 μg/ml) (Lonza code 17-602E). The MDA-MB-231 (ATCC HTB-26) epithelial mammary adenocarcinoma cells were cultured in Eagle's minimum essential medium (EMEM; Invitrogen) containing 5% fetal calf serum (FCS, Cambrex), 2 mM L-glutamine (Invitrogen), 0.06% HEPES (Invitrogen) and penicillin (50 IU/ml)/streptomycin (50 µg/ml; Invitrogen) at 37° C. in a humidified atmosphere of 5% CO2 in air. Transformed mouse NPCs were cultured in suspension under neurosphere conditions at 37° C. in a humidified atmosphere of […] and 5% CO2 in DMEM F12 (Invitrogen 11320-074) supplemented with 1×B27 supplement (Invitrogen 17504-044), 5% penicillin-streptomycin (Biochrom 10378-017), 10 ng/ml EGF (R&D systems 236-EG), 10 ng/ml FGF (PeproTech 100-18B).
(§2) Antiproliferative properties of the synthesized compounds were evaluated by the MTT assay. All compounds were dissolved in DMSO at a concentration of either 100 μM or 50 μM prior to cell treatment. The cells were trypsinized and seeded at various cell concentrations depending on the cell type. The cells were grown for 24 h to 72 h, treated with compounds at concentrations ranging from 0.001 to 100 μM and incubated for 48 or 72 h in 100 or 200 μL media depending on the cell line used. The number of experiments and replicates varied depending on the cell line. Cells treated with 0.1% DMSO were used as a negative control; 1 μM PAO was used as a positive control.
(§3) The synthesized C12-Wittig derivatives were evaluated for antiproliferative activities in a panel of cancer cell lines that included apoptosis-resistant human U373 glioblastoma (GBM) (Lefranc et al., 2013), human A549 non-small cell lung cancer (NSCLC) and human SKMEL-28 melanoma (Mathieu et al., 2009) as well as apoptosis-sensitive human Hs683 anaplastic oligodendroglioma (Lefranc et al., 2013) and human MCF-7 breast cancer (Frolova et al., 2013).

[2] = tested on: human MCF-7 breast cancer; assay: MTT antiproliferative assay, MCF-7; type: cell-based; details: sextuplicates, read-out: GI50 in vitro values, MCF-7
Description: as §1, §2, §3

[3] = tested on: human U373 glioblastoma (GBM); assay: MTT antiproliferative assay, U373; type: cell-based; details: 72 h treatment, sextuplicates, read-out: GI50 in vitro values, U373
Description: as §1, §2, §3

[4] = tested on: human Hs683 anaplastic oligodendroglioma; assay: MTT antiproliferative assay, Hs683; type: cell-based; details: sextuplicates, read-out: GI50 in vitro values, Hs683
Description: as §1, §2, §3

[5] = tested on: MDA-MB-231 breast cancer cells expressing TRPV1; assay: Intracellular Ca2+ measurements, MDA-MB-231; type: cell-based, human; details: 1 at 80 μM, 5 at 20 μM; Fura-2
Description: Human mammary carcinoma MCF-7 (ATCC HTB22) cells were cultured in RPMI supplemented with 10% FBS. The U87 cells (ATCC HTB-14) were cultured in DMEM culture medium, while the A549 cells (DSMZ ACC107) were cultured in RPMI culture medium supplemented with 10% heat-inactivated FBS. The GBM Hs683 (ATCC HTB-138) cells were cultivated in DMEM supplemented with 10% FBS. The human uterine sarcoma MES-SA (ATCC CRL1966) and MES-SA/D×5 cells were cultured in RPMI-1640 medium supplemented with 10% FBS with MES SA/D×5 maintained in the presence of 500 nM Doxorubicin (Sigma). SKMEL-28 cells (ATCC HTB72) and U373 GBM cells (ECACC 08061901) were cultured in RPMI culture medium supplemented with 10% heat-inactivated FBS. Cell culture media were supplemented with 4 mM glutamine (Lonza code BE17-605E), 100 μg/mL gentamicin (Lonza code 17-5182), and penicillin-streptomycin (200 units/ml and 200 μg/ml) (Lonza code 17-602E). […]
Intracellular Ca^2+ measurements. Cells were grown on glass coverslips for fluorescence imaging. The cytosolic calcium was measured using Fura-2-loaded cells. […] Fluorescence was excited at 350 and 380 nm alternately using a monochromator (Polychrome IV; TILL Photonics, Planegg, Germany), and captured by a Cool SNAP HQ camera (Princeton Instruments, France) after filtration through a long-pass filter (510 nm). […]

[6] = tested on: U373 human glioma cell line; assay: Quantitative videomicroscopy, U373; type: cell-based; details: at GI50 concentrations (Table 1)
Description: FIG. 8. In vitro videomicroscopic analysis of the anticancer effects of 1 and its C12-Wittig derivatives 5 and 13. The U373 human glioma cell line was treated with polygodial, 5 and 13 at their mean GI50 concentrations (Table 1) or left untreated. Videomicroscopy enabled taking pictures of the culture field every 4 minutes. The experiment was conducted once in triplicate. While the morphology of cells treated with 1 was fixed over time, 5 and 13 exerted cytostatic effects on U373 cells.
In an effort to gain insight into possible mechanisms associated with antiproliferative properties of 1 and the C12-Wittig derivatives, the morphological changes in cells treated with these compounds were studied with computer-assisted phase-contrast microscopy (Luchetti et al., 2012) (quantitative videomicroscopy).

HeLa-derived tumors = assay: Mouse xenograft model, HeLa; type: in vivo, athymic nude mice; details: for anti-tumor effect, HeLa-derived tumors: 40 μg/100 μl intra-tumor injection every other day for 18 days, polygodial significantly more efficacious than P3; for adverse effects, HeLa xenograft mice: intra-tumor injection every other day for 18 days
Description: Six-week old female athymic nude mice were used in laminar air-flow cabinet in pathogen-free conditions. They were acclimated for one week prior to the start of the study and kept at controlled temperature and humidity, with food and water. Mice were injected subcutaneously in the flank with 2×10^6 Cal27 cells or HeLa cells in 0.1 mL of sterile PBS. When the tumors reached 100 mm^3 (Cal27) and 150 mm^3 (HeLa), the mice were stratified into 4 groups, […], polygodial, P10, P3 and P27 at the concentrations noted in the figure legends.

HSC3 cells = assay: Calcium imaging, HSC3; type: cell-based, human; details: for calcium influx, HSC3: polygodial 80 μM, P10 4 μM, P3 50 μM

GI50 ([1]; Homo sapiens, A549) | GI50 ([2]; Homo sapiens, MCF7, 72 h treatment) | GI50 ([3]; Homo sapiens, U373 MG) | GI50 ([4]; Homo sapiens, Hs 683, 72 h treatment) | SMILES | [Ca2+]i response [5] | morphological effect by videomicroscopy [6] | anti-tumor effect, HeLa-derived tumors (HeLa-derived tumors) | adverse effects, HeLa xenograft mice (HeLa-derived tumors) | reversal of calcium influx by capsazepine, HSC3 (HSC3 cells; CPZ 10 μM) | calcium influx, HSC3 (HSC3 cells) | GI50 [1] | effect on proliferation/viability of all cells, A549 ([1]; apoptosis-resistant A549 NSCLC, concentrations up to 100 μM) | GI50 ([2]; 72 h treatment) | GI50 [3] | GI50 ([4]; 72 h treatment)
90 µM | 75 µM | > 99 µM | 95 µM | CC1(C)CCC[C@]2(C)[C@@H](C=O)C(C=O)=CC[C@@H]12 [Compound 1, Polygodial] | transient and synchronous [Ca^2+]i increase | strong fixative effects | significant anti-tumor effects | marked inflammatory response | inhibited by CPZ | did induce calcium influx |  |  |  |  | 
 |  |  |  | COC(=O)/C=C/C1=CC[C@H]2C(C)(C)CCC[C@]2(C)[C@H]1C=O [Compound 5] | sustained and asynchronous [Ca^2+] increases | inhibited cancer cell proliferation without inducing cell death | significant anti-tumor effects | No observable adverse effects |  | did not induce calcium influx | 21 µM | growth inhibitory properties against most of the cells | 7 µM | 22 µM | 24 µM
